Test [1] concerns the target T1, 5-HT1A receptor (Rattus norvegicus, UniProt P19327).
T1 sequence (P19327 1-422): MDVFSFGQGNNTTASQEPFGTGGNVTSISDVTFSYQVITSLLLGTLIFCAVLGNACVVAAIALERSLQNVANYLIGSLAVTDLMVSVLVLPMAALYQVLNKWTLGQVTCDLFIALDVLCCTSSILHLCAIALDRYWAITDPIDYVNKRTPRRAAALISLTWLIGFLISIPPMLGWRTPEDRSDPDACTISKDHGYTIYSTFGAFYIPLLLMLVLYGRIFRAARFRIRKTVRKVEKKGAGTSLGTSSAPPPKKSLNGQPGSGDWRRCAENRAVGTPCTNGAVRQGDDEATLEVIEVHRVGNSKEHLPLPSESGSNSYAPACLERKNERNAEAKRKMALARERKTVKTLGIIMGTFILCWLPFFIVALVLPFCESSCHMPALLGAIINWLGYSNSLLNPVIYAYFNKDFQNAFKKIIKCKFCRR
Description: 5-HT1A receptor antagonism: antagonism of 8-hydroxy-2-(di-n-propylamino)-tetralin (8-OH DPAT) syndrome in the rat. More on the design: syndrome in the rat; from tissue; host or cells: whole living rat (in vivo). Conditions: sc, antagonism of 8-OH DPAT syndrome, read-out: median effective dose. Type of test: in vivo. The procedure: The compounds are also tested for 5-HT1A receptor antagonism activity in a test involving the antagonism of 8-hydroxy-2-(di-n-propylamino)-tetralin (8-OH DPAT) syndrome in the rat.

Test [2] has as its target T1, 5-HT1A receptor. Description: 5-HT1A receptor binding activity in rat hippocampal membrane homogenate. More on the design: from tissue. The protocol: The compounds of the invention are tested for 5-HT1A receptor binding activity in rat hippocampal membrane homogenate by the method of B. S. Alexander and M. D. Wood, J Pharm Pharmacol, 1988, 40, 888-891.

`COC(=O)c1cc2c(N3CCN(CCC(C(=O)N4CCCCCC4)c4ccccc4)CC3)cccc2[nH]1` (racemic) [Example 5, 4-[4-(4-Azepan-1-yl-4-oxo-3-phenylbutyl)piperazin-1-yl]-1H-indole-2-carboxylic acid methyl ester]: the ED50 at 5-HT1A receptor [1] amounted to 0.3 mg/kg. The IC50 on 5-HT1A receptor [2] turned out to be 0.72 nM.

As a reminder, the IC50 is the point on the concentration scale where inhibition reaches its midpoint. Low readings indicate greater potency, high ones weaker potency.

Source of the values: patent US5627177A, “Piperazine derivatives” (John Wyeth & Brother, Ltd., priority 1993, dated 1997).
